Laboratory results from patent publication US20170049739A1, “PROSTACYCLIN COMPOUNDS, COMPOSITIONS AND METHODS OF USE THEREOF” (INSMED INCORPORATED, priority 2013, published 2017).

How the values were obtained:
[1] = Treprostinil alkyl ester conversion to treprostinil in rat lung tissue homogenate; assay type: in vitro ADME; conditions: 37° C., 200 nM, 10 mg/mL of protein, 4 hours
Protocol: (§1) Treprostinil alkyl ester conversion to treprostinil was also measured in the presence of rat, dog and monkey lung tissue homogenate at 37° C. Mere, data were calculated based on fit of exponential increase to the maximum (experiments performed in duplicate). The results of this study are provided below in Table 2A and FIG. 37. […] Both FIG. 37 experiments (left and right graphs) were performed in duplicate and the lines represent nonlinear exponential regression assuming 1 phase decay.

[2] = Treprostinil alkyl ester conversion to treprostinil in dog lung tissue homogenate; assay type: in vitro ADME; conditions: 37° C., 200 nM, 10 mg/mL of protein, 4 hours
Protocol: as §1

[3] = Treprostinil alkyl ester conversion to treprostinil in monkey lung tissue homogenate; assay type: in vitro ADME; conditions: 37° C., 200 nM, 10 mg/mL of protein, 4 hours
Protocol: as §1

CHO-K1 cells = experiment: CHO-K1 cell proliferation assay; conditions: unformulated alkyl esters, 0.195 μM-25 μM, 48 hour incubation
Protocol: CHG-K1 cells were harvested when the cell monolayer was 50-90% confluent (use passage 4-11). Media was aspirated out of the flask, and cells were rinsed with 2 mL of F12 media. Next, 1 mL of pre-warmed (37° C.) 0.25%o trypsin-EDTA (Life Technologies, Cat#: 25300054) was added, and cells were dislodged from the flask by tapping it on the side. Complete growth media (F12 (Life Technologies, Cat #: 31765092) +10%FBS (Hyclone, Cat #: SH30071.03)+1× Pen-Strep (Life Technologies, cat #15140-122) was then added at a volume of 10 mL. Cells were eentrifuged at 250×g for 5 minutes at room temperature, and the media was aspirated. The cell pellet was resuspended in 10 ml. complete growth media. Cell number was determined using a hemacytometer. Ceils were then seeded at 2000 cells per well of a 96-well plate in 100 μL of complete growth media. The plate was incubated overnight at 37° C. and 5% CO2 in a water-jacketed incubator.
The next day, 80 μL of fresh complete media was added to each well, and CHO—K1 cells were challenged with treprostinil compound and composition treatments. The working solutions were prepared at 10× concentration, and following 2 fold serial dilutions, 20 μL aliquots were added per well to arrive at a final 1× concentration. Following a 48 hour incubation at 37° C. and 5% CO2 in a water-jacketed incubator, the inhibitory effect on cell proliferation was determined. Plates were analyzed using 20 μL of Presto Blue reagent (Life Technologies, cat #: A13262) per well. The reagent was mixed, and plates were incubated for 1 hour at 37° C. and 5% CO2 in a water-jacketed incubator. Plates were read using either a CytoFluor Series 4000 (PerSeptive BioSystems) or Synergy Neo microplate reader (BioTek) with emission λ: 590 nm and excitation λ: 560 nm.
Following a 48 hour incubation period, the inhibitory effect of the treprostinil derivative compositions on cell proliferation was determined.
CHO—K1 cells were challenged with treprostinil alkyl esters, i.e., TR compounds of Formula (A), having the following R2 groups: • C2, C3, C4, C5, C6, C8, C10 or C12 straight chain alkyl, at dosages ranging from 0.098 μM to 25 μM, Following a 48 hour incubation period, the inhibitory effect on cell proliferation was determined.
Following a 72 hour incubation period, the inhibitory effect on cell proliferation was determined. Following a 48 hour incubation period, the inhibitory effect on cell proliferation was determined.
Similarly, CHG-K1 cells were challenged with the treprostinil compositions T612 (R2═C2), T613 (R2═C8) at concentrations ranging from 1.41 μM to 180 μM.

NR8383 cells = experiment: NR8383 cell proliferation assay; assay type: cell-based, rat; conditions: unformulated alkyl esters, 0.195 μM-25 μM, 72 hour incubation
Protocol: Rat alveolar NR8383 cells were harvested when the monolayer was 50-90% confluent (use passage 5-11). Because the NR8383 cells include both adherent and non-adherent cells, media was transferred to a 50 mL Falcon tube. To obtain the cells remaining in the flask, 2 mL of plain media was added, and the remaining cells were scraped out of the 75 cm^2 flask with a cell scraper and added to the 50 mL tube. […] SH30071.03) […] Technologies, cat #: 15410-122)). Cell number was determined using a hemacytometer. […] Measurements and calculations were made as described above for the CHO-K1 cells.

- Rate of treprostinil alkyl ester conversion [1]: 1.1 nmOL/h * g of protein
- Rate of treprostinil alkyl ester conversion [2]: 2.2 nmOL/h * g of protein
- Rate of treprostinil alkyl ester conversion [3]: 0.6 nmOL/h * g of protein
SMILES: CCCCCCCCCCCCOC(=O)COc1cccc2c1C[C@H]1C[C@@H](O)[C@H](CC[C@@H](O)CCCCC)[C@H]1C2 [C12-TR, dodecyl-treprostinil]
- Effect on cell proliferation: concentration with detectable inhibition (CHO-K1 cells): No detectable cell inhibition
- Effect on cell proliferation (NR8383 cells): No detectable cell inhibition
